Data from publication PMC3717983 (Journal of medicinal chemistry, 2013).
Several values for one entry are separate records, joined by “and”; a condition that tells them apart may be missing. Equal entries are not always repeated. Marks after values point to notes of the source that are not given here.

Experiments:
[1] = target: thrombin (Homo sapiens, UniProt P00734); experiment: Sequential inhibition of thrombin by 9a and PPACK; type: biochemical; details: PPACK added following inhibition by 9a (Figure S10)
[2] = Water solubility; type: physicochemical; details: devoid of any sulfate group
[3] = target: human α-thrombin (Homo sapiens, UniProt P00734); type: biochemical; details: for HS (Hill slope) / logIC50: pH 7.4, 25 °C, Spectrozyme TH; for fold decrease in potency from 9a: ratio of IC50s

Compound: N=C(N)NCCC[C@H](NC(=O)[C@@H]1CCCN1C(=O)[C@H](N)Cc1ccccc1)C(=O)CCl [PPACK, D-Phe-Pro-Arg-chloromethylketone]
- thrombin activity after sequential inhibition [1]: totally inactive

Compound: CCOC(=O)c1c(COc2cc3c(C(=O)OCC)c(COc4cc5c(C(=O)O)c(C)oc5cc4OC)oc3cc2OC)oc2cc(OC)c(O)cc12 [compound 12]
- water solubility [2]: fairly good water solubility

Compound: C=CCOC(=O)c1c(C)oc2cc(OC)c(OCc3oc4cc(OC)c(OCc5oc6cc(OC)c(OS(=O)(=O)[O-])cc6c5C(=O)OCC)cc4c3C(=O)OCC)cc12.[Na+] [compound 13]
- HS (Hill slope) [3]: 3.5 ± 1.2
- logIC50 [3]: −4.51 ± 0.06
- fold decrease in potency from 9a [3]: 46 fold

Compound: CCOC(=O)c1c(COc2cc3c(C(=O)O)c(C)oc3cc2OC)oc2cc(OC)c(OCc3oc4cc(OC)c(OS(=O)(=O)[O-])cc4c3C(=O)OCC)cc12.[Na+] [compound 14]
- fold reduction in potency from 13 ([3]; allyl ester to carboxylic acid): 2 fold
- HS (Hill slope) [3]: 1.0 ^c
- logIC50 [3]: −4.18 ± 0.17

Compound: CCOC(=O)c1c(C)oc2cc(OC)c(OCc3oc4cc(OC)c(OCc5oc6cc(OC)c(OCc7oc8cc(OC)c(OS(=O)(=O)[O-])cc8c7C(=O)OCC)cc6c5C(=O)OCC)cc4c3C(=O)OCC)cc12.[Na+] [compound 17]
- HS (Hill slope) [3]: 1.0 ^c
- logIC50 [3]: −3.80 ± 0.15
- fold decrease in potency from 9a [3]: ~236 fold and 225 fold

Compound: CCOC(=O)c1c(C)oc2cc(OC)c(OCc3oc4cc(OC)c(OCc5oc6cc(OS(=O)(=O)[O-])c(OC)cc6c5C(=O)OCC)cc4c3C(=O)OCC)cc12.[Na+] [compound 23]
- HS (Hill slope) [3]: 1.2 ± 0.3
- logIC50 [3]: −3.81 ± 0.13
